Activity calls are given as the source filed them. The calls are words filed in the database; no cut-off is given here.
Legend:
A549 = test: Selectivity index, Ratio of IC50 for progesterone receptor expressed in human T47 cells to IC50 for glucocorticoid receptor expressed in human A549 cells
Progesterone receptor = target: T1, Progesterone receptor (Homo sapiens, UniProt P06401); test: Antagonist activity at progesterone receptor expressed in human T47 cells assessed as blockade of progesterone-induced alkaline phosphatase activity; assay type: functional, cell-based
T1 sequence (P06401 whole entry): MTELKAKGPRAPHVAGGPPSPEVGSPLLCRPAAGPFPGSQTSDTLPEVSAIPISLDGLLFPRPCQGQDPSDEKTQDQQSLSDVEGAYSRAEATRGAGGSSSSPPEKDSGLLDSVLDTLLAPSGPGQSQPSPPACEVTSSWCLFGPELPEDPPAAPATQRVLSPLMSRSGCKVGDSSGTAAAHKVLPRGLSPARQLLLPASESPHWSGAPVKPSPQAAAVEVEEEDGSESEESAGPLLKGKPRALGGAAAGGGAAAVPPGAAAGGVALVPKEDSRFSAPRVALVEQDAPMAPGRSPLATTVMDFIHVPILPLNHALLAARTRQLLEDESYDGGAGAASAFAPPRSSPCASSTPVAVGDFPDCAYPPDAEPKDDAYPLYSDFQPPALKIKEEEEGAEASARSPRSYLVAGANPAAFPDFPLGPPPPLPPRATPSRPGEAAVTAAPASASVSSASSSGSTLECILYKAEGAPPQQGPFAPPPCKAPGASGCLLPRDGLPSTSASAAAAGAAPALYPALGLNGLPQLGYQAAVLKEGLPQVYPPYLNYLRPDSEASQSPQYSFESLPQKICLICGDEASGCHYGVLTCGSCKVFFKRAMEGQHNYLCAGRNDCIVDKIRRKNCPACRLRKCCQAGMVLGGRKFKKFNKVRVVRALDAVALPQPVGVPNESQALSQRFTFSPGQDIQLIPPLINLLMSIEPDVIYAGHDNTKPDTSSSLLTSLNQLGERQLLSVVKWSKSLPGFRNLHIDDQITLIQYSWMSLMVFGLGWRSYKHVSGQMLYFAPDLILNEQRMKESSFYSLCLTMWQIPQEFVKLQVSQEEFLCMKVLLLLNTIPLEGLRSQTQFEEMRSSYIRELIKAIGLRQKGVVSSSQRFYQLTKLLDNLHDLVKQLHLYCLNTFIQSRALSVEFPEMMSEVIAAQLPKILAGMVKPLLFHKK

Glucocorticoid receptor = target: T2, Glucocorticoid receptor (Homo sapiens, UniProt P04150); test: Antagonist activity at glucocorticoid receptor expressed in human A549 cells assessed as inhibition of corticoid-induced transcription by glucocorticoid response element-linked luciferase reporter gene assay; assay type: functional, cell-based
T2 sequence (P04150 whole entry): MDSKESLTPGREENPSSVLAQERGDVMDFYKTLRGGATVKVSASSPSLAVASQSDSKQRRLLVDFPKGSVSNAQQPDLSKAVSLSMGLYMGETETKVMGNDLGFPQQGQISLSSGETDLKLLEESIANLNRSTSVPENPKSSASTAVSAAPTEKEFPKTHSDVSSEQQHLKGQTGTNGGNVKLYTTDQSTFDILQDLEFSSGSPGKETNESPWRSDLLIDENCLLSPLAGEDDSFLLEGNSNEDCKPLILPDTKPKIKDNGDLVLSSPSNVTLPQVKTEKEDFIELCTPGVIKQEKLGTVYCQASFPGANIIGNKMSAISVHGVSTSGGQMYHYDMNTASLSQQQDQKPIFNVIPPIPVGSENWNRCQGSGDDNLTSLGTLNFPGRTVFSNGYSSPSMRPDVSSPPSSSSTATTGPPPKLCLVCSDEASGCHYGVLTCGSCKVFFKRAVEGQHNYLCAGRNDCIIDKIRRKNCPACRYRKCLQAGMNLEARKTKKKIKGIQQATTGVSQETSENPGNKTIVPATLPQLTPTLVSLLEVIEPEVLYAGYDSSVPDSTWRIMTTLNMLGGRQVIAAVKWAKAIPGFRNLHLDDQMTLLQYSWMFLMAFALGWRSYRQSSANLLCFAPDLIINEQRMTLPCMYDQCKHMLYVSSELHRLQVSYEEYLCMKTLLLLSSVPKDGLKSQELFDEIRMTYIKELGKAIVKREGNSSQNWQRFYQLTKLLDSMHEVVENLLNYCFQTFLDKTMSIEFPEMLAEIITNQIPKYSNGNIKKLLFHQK

[1] = Permeability across Caco-2 cells; assay type: ADME, cell-based; settings: human, read-out: permeability
[2] = Clearance in mouse at 2 mg/kg, iv; assay type: ADME, organism-based; parameters: dose 2 mg/kg, route intravenous; settings: in vivo
[3] = Metabolic stability in rabbit microsomes assessed as half life; assay type: ADME, Oryctolagus cuniculus, Microsome
[4] = Metabolic stability in mouse microsomes assessed as half life; assay type: ADME, Microsome
[5] = Half life in mouse at 10 mg/kg, po; assay type: ADME, organism-based; parameters: dose 10 mg/kg, route oral; settings: in vivo
[6] = Tmax in mouse at 10 mg/kg, po; assay type: ADME, organism-based; parameters: dose 10 mg/kg, route oral; settings: in vivo
[7] = Tmax in mouse at 2 mg/kg, iv; assay type: ADME, organism-based; parameters: dose 2 mg/kg, route intravenous; settings: in vivo
Mus musculus = test: Decrease in plasma glucose level in po dosed ob/ob mouse after 15 days by OGTT; assay type: functional, organism-based
[8] = Oral bioavailability in mouse at 10 mg/kg; assay type: ADME, organism-based; settings: in vivo
[9] = Cmax in mouse at 10 mg/kg, po; assay type: ADME, organism-based; parameters: dose 10 mg/kg, route oral; settings: in vivo
[10] = Half life in mouse at 2 mg/kg, iv; assay type: ADME, organism-based; parameters: dose 2 mg/kg, route intravenous; settings: in vivo
[11] = Metabolic stability in rat microsomes assessed as half life; assay type: ADME, Microsome
hERG (KCNH2) = hERG (KCNH2) (Homo sapiens, UniProt Q12809); test: Inhibition of hERG at 10 uM; assay type: toxicity
[12] = Metabolic stability in monkey microsomes assessed as half life; assay type: ADME, Macaca mulatta, Microsome; settings: rhesus monkey
[13] = Metabolic stability in human microsomes assessed as half life; assay type: ADME, Microsome
[14] = Cmax in mouse at 2 mg/kg, iv; assay type: ADME, organism-based; parameters: dose 2 mg/kg, route intravenous; settings: in vivo
[15] = Metabolic stability in dog microsomes assessed as half life; assay type: ADME, Canis lupus familiaris, Microsome

Chain of hERG (KCNH2) (Q12809 whole entry): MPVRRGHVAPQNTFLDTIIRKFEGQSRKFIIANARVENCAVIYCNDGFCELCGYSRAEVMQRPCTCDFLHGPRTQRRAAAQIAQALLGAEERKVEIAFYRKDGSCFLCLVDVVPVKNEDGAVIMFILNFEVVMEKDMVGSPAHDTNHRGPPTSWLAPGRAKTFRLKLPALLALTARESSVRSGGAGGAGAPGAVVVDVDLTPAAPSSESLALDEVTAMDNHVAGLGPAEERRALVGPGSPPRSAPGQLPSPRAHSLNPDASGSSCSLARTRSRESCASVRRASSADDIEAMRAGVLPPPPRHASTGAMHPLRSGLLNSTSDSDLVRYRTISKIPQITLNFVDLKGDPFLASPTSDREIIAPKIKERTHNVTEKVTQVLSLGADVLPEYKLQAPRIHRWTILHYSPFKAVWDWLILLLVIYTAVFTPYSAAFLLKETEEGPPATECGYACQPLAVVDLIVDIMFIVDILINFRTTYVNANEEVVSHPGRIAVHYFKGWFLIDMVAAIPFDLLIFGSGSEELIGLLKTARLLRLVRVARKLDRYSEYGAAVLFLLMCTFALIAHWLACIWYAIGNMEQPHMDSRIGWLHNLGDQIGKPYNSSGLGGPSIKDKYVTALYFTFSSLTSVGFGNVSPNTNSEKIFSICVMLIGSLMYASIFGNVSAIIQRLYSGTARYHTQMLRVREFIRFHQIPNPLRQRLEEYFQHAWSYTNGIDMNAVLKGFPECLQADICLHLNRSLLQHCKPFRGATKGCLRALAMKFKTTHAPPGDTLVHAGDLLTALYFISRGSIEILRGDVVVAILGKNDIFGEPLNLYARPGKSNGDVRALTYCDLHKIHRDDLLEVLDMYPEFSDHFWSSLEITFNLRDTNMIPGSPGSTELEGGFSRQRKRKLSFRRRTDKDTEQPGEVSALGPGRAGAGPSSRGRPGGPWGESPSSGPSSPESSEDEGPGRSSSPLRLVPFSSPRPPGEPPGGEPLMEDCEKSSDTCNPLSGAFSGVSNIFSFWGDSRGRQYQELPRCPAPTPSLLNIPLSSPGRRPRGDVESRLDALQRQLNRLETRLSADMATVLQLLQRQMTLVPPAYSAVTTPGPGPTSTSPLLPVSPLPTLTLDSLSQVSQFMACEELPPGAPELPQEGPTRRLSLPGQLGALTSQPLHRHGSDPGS

For `CC#C[C@]1(O)CC[C@H]2[C@@H]3CCC4=CC(=O)CCC4=C3[C@@H](c3ccc(P(=O)(c4ccccc4)c4ccccc4)cc3)C[C@@]21C`, the Ratio (A549) was 127, the IC50 (Progesterone receptor) was 381 nM and the Ki (Glucocorticoid receptor) was 3 nM.

With `C=C1CCO[C@]12CC[C@H]1[C@@H]3CCC4=CC(=O)CCC4=C3[C@@H](c3ccc(P(=O)(OCC)OCC)cc3)C[C@@]12C` the Ratio (A549) was 0.17, the IC50 (Progesterone receptor) was 9.9 nM and the Ki (Glucocorticoid receptor) was 56.3 nM.

`CC#C[C@]1(O)CC[C@H]2[C@@H]3CCC4=CC(=O)CCC4=C3[C@@H](c3ccc(P(=O)(OCC)OCC)cc3)C[C@@]21C` gave a Ratio (A549) of 15.7, an IC50 (Progesterone receptor) of 141 nM and a Ki (Glucocorticoid receptor) of 9 nM.

Work on `CC#C[C@]1(O)CC[C@H]2[C@@H]3CCC4=CC(=O)CCC4=C3[C@@H](c3ccc(P(C)(C)=O)cc3)C[C@@]21C` yielded a Ratio (A549) of 10.1, an IC50 (Progesterone receptor) of 101 nM and an IC50 (Glucocorticoid receptor) of 10 nM.

Compound `C[C@]12C[C@H](c3ccc(P(=O)(c4ccccc4)c4ccccc4)cc3)C3=C4CCC(=O)C=C4CC[C@H]3[C@@H]1CC[C@@]2(O)c1ccccc1` has a Ratio (A549) of 13.8, an IC50 (Progesterone receptor) of 275 nM and a Ki (Glucocorticoid receptor) of 20 nM.

In the case of `C=C1CCO[C@]12CC[C@H]1[C@@H]3CCC4=CC(=O)CCC4=C3[C@@H](c3ccc(P(C)(=O)OCC)cc3)C[C@@]12C` (stereo not given in full), the Ratio (A549) is reported as 0.027, the IC50 (Progesterone receptor) is reported as 1.6 nM and the Ki (Glucocorticoid receptor) is reported as 59.8 nM.

Compound `C=CC[C@]1(O)CC[C@H]2[C@@H]3CCC4=CC(=O)CCC4=C3[C@@H](c3ccc(P(=O)(OCC)OCC)cc3)C[C@@]21C` has a Ratio (A549) of 30.8, an IC50 (Progesterone receptor) of 308 nM and a Papp [1] of 14.5 ×10⁻⁶ cm/s. For the same compound, the Ki (Glucocorticoid receptor) was 10 nM.

In the case of `C=C1CCO[C@]12CC[C@H]1[C@@H]3CCC4=CC(=O)CCC4=C3[C@@H](c3ccc(P(=O)(O)OCC)cc3)C[C@@]12C`, the IC50 (Progesterone receptor) is reported as greater than 1000 nM and the Ki (Glucocorticoid receptor) is reported as greater than 3000 nM.

With `C=CC[C@]1(O)CC[C@H]2[C@@H]3CCC4=CC(=O)CCC4=C3[C@@H](c3ccc(P(=O)(c4ccccc4)c4ccccc4)cc3)C[C@@]21C` the Ratio (A549) was 76.3, the clearance [2] was 7.98 mL/min/kg and the half-life [3] was 30 min. The half-life [4] was 28 min, the half-life [5] was 132 min and the Tmax [6] was 120 min. The Tmax [7] was 4.8 min, the Activity (Mus musculus) was “Active” and the bioavailability [8] was 59%. For the same compound, the Cmax [9] was 1850 ng/mL, the half-life [10] was 46.2 min and the IC50 (Progesterone receptor) was 763 nM. It also gave a half-life [11] greater than 30 min, an inhibition at 10 µM (hERG (KCNH2)) of 27.8% and a Papp [1] of 2.6 ×10⁻⁶ cm/s. It also gave a half-life [12] of 8 min, a Ki (Glucocorticoid receptor) of 10 nM and a half-life [13] greater than 30 min. It also gave a Cmax [14] of 5290 ng/mL and a half-life [15] of 21 min.

For `CC#C[C@]1(O)CC[C@H]2[C@@H]3CCC4=CC(=O)CCC4=C3[C@@H](c3ccc(N(C)C)cc3)C[C@@]21C` [MIFEPRISTONE], the clearance [2] was 115 mL/min/kg, the half-life [5] was 168 min and the Tmax [6] was 60 min. The Tmax [7] was 4.8 min, the Activity (Mus musculus) was “Active” and the bioavailability [8] was 31%. The Cmax [9] was 30 ng/mL, the half-life [10] was 240 min and the Cmax [14] was 2800 ng/mL.

Work on `C=C1CCO[C@]12CC[C@H]1[C@@H]3CCC4=CC(=O)CCC4=C3[C@@H](c3ccc(P(C)(=O)O)cc3)C[C@@]12C` yielded an IC50 (Progesterone receptor) greater than 1000 nM and a Ki (Glucocorticoid receptor) greater than 3000 nM.

— ChEMBL document CHEMBL1139120, “Discovery of novel phosphorus-containing steroids as selective glucocorticoid receptor antagonist” (Bioorg Med Chem Lett, 2007)
